Patent US20030175961A1, “Immortal micorvascular endothelial cells and uses thereof” (priority 2002, published 2003)
“Also recorded” adds a separate entry of the source.

Key:
[1] = system: primary normal human keratinocyte (NHK) cultures; experiment: Fluorescent substrate assay (FSA) of net MMP activity in keratinocyte conditioned media; format: cell-based; conditions: conditioned media of PMA-treated NHK, only after APMA activation
Excerpt: The FSA is an assay system for MMP activities based on recently-developed fluorogenic substrates that utilize 7-methoxycoumarin (MOC)-labeled MMP-specific small peptides (“Knight” substrate; Knight CG. Fluorimetric Assays of Proteolytic Enzymes. Met Enzymol 1995, 248:18-34). Release of MOC from the 2,4-dinitrophenyl-quenched peptide by active MMPs results in proportional increases in fluorescence with time. Activities of recombinant MMP-2 and MMP-9 using the Knight substrate were readily detectable and yielded linear initial reaction rates over 10 minutes. Calculated initial rates of hydrolysis of the Knight substrate (4 uM) by MMP-2 (1.2 nM), MMP-9 (1.2 nM), and MMP-2 (0.6 uM) plus MMP-9 (0.6 uM) were 571.1 units/min, 208.2 units/min, and 242 units/min, respectively.
Reverse zymography confirmed the presence of TIMPs.

[2] = system: human microvessel formation by GNMEC1; experiment: In vivo human microvascular remodeling assay, GNMEC1 in Matrigel implants in SCID mice; design: species or system human cells in SCID mice; conditions: agents mixed with GNMEC1 in Matrigel before implantation in SCID mice; FIG. 24-27; preliminary studies
Excerpt: (§1) SCID mice were implanted with Matrigel mixtures containing either b-FGF, primary HDMEC (PD1O) or hTERT(+)HDMEC via subcutaneous injection on ventral thoracic surfaces. Implants were harvested at 2 weeks, sectioned and stained with H&E and anti-human basement membrane Type 4 collagen. […] The presence of red blood cells within these human vessels indicates host vasculature has anastamosed with the human vessels creating murine-human chimeric microvasculature.
All agents were incorporated into Matrigel by mixing cells and agents together before implantation. The effect of continuous exposure at different concentrations was not performed but would be likely to greatly accentuate the results shown in these preliminary studies.

[3] = system: GNMEC1 (eGFP-labeled hTERT(+)HDMEC); experiment: In vitro angiogenic web formation on Matrigel; format: cell-based, human; conditions: GNMEC1 pretreated with COX antagonist, then plated on Matrigel; FIG. 17
Procedure: Tubule formation on Matrigel. Matrigel (Collaborative Biomedical Products) was placed on ice and allowed to thaw overnight in a darkened cold room or refrigerator. Three hundred fifty microliters of the Matrigel was layered onto a pre-chilled well of a 6-well plate and then placed in an incubator at 37° C. for one half hour for the Matrigel to solidify. About 350,000 cells in M199/15% FBS/10 U/ml heparin/16 ig/ml ECGF were then seeded onto the matrix and allowed to incubate at 37° C., 5% CO2 environment. […] To show the utility of this in vitro system, we pretreated GNMEC1 with two different cyclo-oxygenase (COX) antagonists which are known to block angiogenesis (Jones et al. 1999 Nature Medicine 5:12;1418-23) and then plated the cells on Matrigel. […] The “tubulogenic process” can be followed and quantified utilizing cell lines such as GNMEC1 and digitally-converted fluorescence microscopic images of replicate cultures. Commercially available programs in current use with other cellular applications which maybe used to perform this process include MetaMorph® (Universal Imaging Corporation®, West Chester, Pa.) and the high-throughput imaging systems of Cellomics, Inc. (Pittsburgh, Pa.).

[4] = system: MMP activities; experiment: Fluorescent substrate assay (FSA) of MMP activity in HDMEC conditioned media; format: biochemical, human; conditions: concentrated conditioned media from HDMEC cultures +/- PMA; Knight substrate
Procedure: Replicate hTERT(+)HDMECs (PD30, 60, 90) and primary controls (PD5, PD25) are seeded at equal densities, grown to confluence and switched to EBM media (Clonetics, San Diego, Calif.) containing growth factors, but no serum, for 72 hrs. Media is collected and total protein measured (Pierce, Rockford, Ill.). […] In addition, conditioned media are analyzed by a fluorescent substrate assay (FSA).
The FSA is an assay system for MMP activities based on recently-developed fluorogenic substrates that utilize 7-methoxycoumarin (MOC)-labeled MMP-specific small peptides (“Knight” substrate; Knight CG. Fluorimetric Assays of Proteolytic Enzymes. Met Enzymol 1995, 248:18-34). Release of MOC from the 2,4-dinitrophenyl-quenched peptide by active MMPs results in proportional increases in fluorescence with time. Activities of recombinant MMP-2 and MMP-9 using the Knight substrate were readily detectable and yielded linear initial reaction rates over 10 minutes. Calculated initial rates of hydrolysis of the Knight substrate (4 uM) by MMP-2 (1.2 nM), MMP-9 (1.2 nM), and MMP-2 (0.6 uM) plus MMP-9 (0.6 uM) were 571.1 units/min, 208.2 units/min, and 242 units/min, respectively. […]

[5] = system: hTERT(+) HDMEC (TERT-1); experiment: Cell surface marker expression after TNF stimulation, TERT-1; format: cell-based, human; conditions: TNFá stimulation for 16 hr
Procedure: (§2) The hTERT(+) HDMEC (TERT-1) line expressed uniformly high PCAM but relatively low levels of ICAM-1 (30%), VCAM-1 (1.3%) and CD34 (19.5%) at baseline. […] The latter result was consistent with experiments performed in support of the present invention that studied the same characteristics of primary HDMEC CD34 expression.
(§3) The antibodies used for flow Cytometry were anti-PECAM (Becton Dickinson), ICAM (Pharmingen), and Apo2.7 (Immunotech). […] For apo 2.7 assay, the cells were treated with TNFá+actinomycin D (AMD), LPS+cycloheximide (CHX), or UV light 16 hours prior to the experiments. One group of cells were serum starved for 40 hours. The cells are incubated with either PE conjugated primary antibody or un-conjugated primary antibody+PE conjugated secondary antibody at 37° C. The data was collected and analyzed with CellQuest (Becton Dickinson) or Coulter EPICS cell sorter.

[6] = system: primary HDMEC (control); experiment: Cell surface marker expression after TNF stimulation, primary HDMEC; format: cell-based, human; conditions: TNFá stimulation for 16 hr
Procedure: as §2, §3

[7] = system: HDMEC-GT derived microvessels; experiment: SCID mice xenografting of HDMEC-GT in Matrigel, human vessel quantification; format: in vivo, human cells in SCID mice; conditions: for human vessel density (human type IV collagen micromorphometry): two weeks after implantation, VEGF 2 μg/ml or FGF-2 150 ng/ml mixed with HDMEC-GT and Matrigel, only FGF-2 significant (p<0.01)
Procedure: This procedure is based on a modification of the mouse angiogenesis model previously described^41. Two-three week old male or female SCID mice (Taconic, Germantown, N.Y.) were used as hosts for all implants. Primary HDMEC and HDMEC-T were harvested, washed twice and re-suspended in serum-free EGM-2 basal medium at the concentration of 1×10^5/μl. Ten μl of cells were mixed with 0.5 ml of Matrigel on ice and the mixture was implanted in the ventral midline thoracic tissue of each mouse by subcutaneous injection using a #25 needle. Up to three separate injections could be performed on a single mouse. For some experiments, recombinant human VEGF165 (2 μg/ml) (R&D systems, Minneapolis, Minn.) or bovine FGF-2 (150 ng/ml) (R&D systems, Minneapolis, Minn.) were added to the mixture. When tumor cells (HT1080 and 293, ATCC) or primary human dermal fibroblasts 38 were injected, the procedure remained the same except basal DMEM medium replaced EGM-2. 41. Passaniti, A. et al. A simple, quantitative method for assessing angiogenesis and antiangiogenic agents using reconstituted basement membrane, heparin, and fibroblast growth factor. Lab. Invest. 67, 519-528 (1992).
Matrigel implants were removed at 1, 2, 4 and 6 wk following xenografting, fixed in 10% buffered formalin overnight, paraffin-embedded and sectioned. H&E stained thin sections were prepared at Pan-insular Histopathology laboratory (Los Gatos, Calif.). For immunofluorescence, thin sections were deparaffinized and antigens retrieved in 10 mM citric acid (pH 6.0) by microwaving sections for 2×7 min. […] For micromorphometry, 5 separate 20×fields were randomly selected per tissue section and the number of annular structures were counted and averaged. […] Passaniti, A. et al. A simple, quantitative method for assessing angiogenesis and antiangiogenic agents using reconstituted basement membrane, heparin, and fibroblast growth factor. […]
For digital analysis of eGFP fluorescence images we used a novel algorithm (Moss Filter™) to determine the total amount of vascularization in each implant section. […]

[8] = system: host murine microvasculature; experiment: Host vessel invasion of Matrigel implants in SCID mice; format: in vivo; conditions: FGF-2 alone in Matrigel, no human EC
Excerpt: as §1
This procedure is based on a modification of the mouse angiogenesis model previously described^41. Two-three week old male or female SCID mice (Taconic, Germantown, N.Y.) were used as hosts for all implants. […] Passaniti, A. et al. A simple, quantitative method for assessing angiogenesis and antiangiogenic agents using reconstituted basement membrane, heparin, and fibroblast growth factor. […]
Matrigel implants were removed at 1, 2, 4 and 6 wk following xenografting, fixed in 10% buffered formalin overnight, paraffin-embedded and sectioned. […] For micromorphometry, 5 separate 20×fields were randomly selected per tissue section and the number of annular structures were counted and averaged. […] Passaniti, A. et al. A simple, quantitative method for assessing angiogenesis and antiangiogenic agents using reconstituted basement membrane, heparin, and fibroblast growth factor. […]

CCCCCCCCCCCCCC(=O)O[C@@H]1[C@@H](C)[C@@]2(O)[C@@H](C=C(CO)C[C@]3(O)C(=O)C(C)=C[C@@H]23)[C@@H]2C(C)(C)[C@]12OC(C)=O [PMA, reference compound]
net MMP activity [1]: 10.1 units/min/ug total protein
effect on human microvessel formation in vivo (microvessel density, anti-human Type 4 collagen immuno-micromorphometry) [2]: angiostatic qualities

COc1ccc2c(c1)c(CC(=O)O)c(C)n2C(=O)c1ccc(Cl)cc1 [indomethacin]
angiogenic web blockade (dose-response curve) [3]: angiogenic web blockade

CS(=O)(=O)Nc1ccc([N+](=O)[O-])cc1OC1CCCCC1 [NS-398]
angiogenic web blockade (dose-response curve) [3]: angiogenic web blockade

c1cnc2c(c1)ccc1cccnc12 [1, 10 phenanthraline, reference compound]
blocking of MMP activities [4]: completely blocked

TNFá
VCAM-1 expression ([5]; TERT-1 (baseline 1.3%)): 41%
CD34 expression ([5]; TERT-1 (baseline 19.5%)): 1.6%
ICAM-1 expression ([5]; TERT-1 (baseline 30%)): > 99%
ICAM-1 expression ([6]; control primary cells): > 99%
VCAM-1 expression ([6]; control primary cells): 41%
CD34 expression ([6]; primary cells): 45%

VEGF
increased vessel density relative to controls ([7]; VEGF mixed with HDMEC-GT and Matrigel, two weeks, not statistically significant): 20-30%
human vessel density (human type IV collagen micromorphometry) [7]: increased vessel density

FGF-2: bovine FGF-2 (R&D systems), pro-angiogenic factor
human vessel density (human type IV collagen micromorphometry) [7]: statistically increased human vessel density
host vessel invasion of Matrigel implants [8]: marked host vessel invasion; also recorded: stimulated
host vessel invasion of Matrigel implants ([8]; listed as b-FGF): host microvasculature is readily apparent invading
effect on human microvessel formation in vivo (microvessel density, anti-human Type 4 collagen immuno-micromorphometry) [2]: greatest stimulatory effect

rTIMP-1: Tissue Inhibitor of Matrix metalloProteinases 1
blocking of MMP activities [4]: partially blocked
